Measurements taken from patent US11246844B2, “Methods for inhibiting conversion of choline to trimethylamine (TMA)” (The Procter & Gamble Company, priority 2016, dated 2022).
Where a name gives a salt, the structure may show the parent alone. Read-outs that look alike come from different tables or passages of the source.

Legend:
[1] = test system: Proteus mirabilis 29906 (Pm) lysate; experiment: Inhibition of conversion of choline to TMA in Proteus mirabilis lysate (Example 2); type: biochemical; settings: read-out: TMA Inhibition (IC50, mol/L)
plasma TMAO = experiment: Preclinical screening method: plasma TMAO in mice on 1% Choline Added diet (Example 3); type: in vivo, mice (C57bl/6); settings: Mus musculus, read-out: Remaining plasma TMAO as percentage of plasma TMAO in same day vehicle control (% of control remaining)
Protocol: Starting at day 0, mice (C57bl/6, ˜19 g, 10 wk of age; n=5/group) were maintained in accordance with the NIH guidelines in a 12:12 hr light:dark cycle and provided with 1% Choline Added diet (Envigo custom formulation prepared, similar to Teklad Global Rodent Diet 2018) ad libitum. Concurrent with introduction of the diet mice were gavaged once daily orally using a 1.5″ 22G ball-tip curved feeding needle to administer compound in 200 μl or less of water at one or multiple of the dose 0, 1.0, 3.1, 10, 31, 100 or 310 mg/kg/day. Urine was collected once daily in the morning. Animals were restrained by hand and bladder was expressed by gentle palpation of the pelvic region. Aliquots of 1-5 μl of urine were centrifuged at 1,300×g for 5 min in a 1.5 mL conical bottom tube with a snap top, to precipitate any potential cellular debris, and supernatants were transferred to a clean screw-cap tube with o-ring seal and stored at −80° C. until analysis. Sixty microliters or less of blood was collected at 20 hours post gavage, into a heparinized capillary tube. Blood was kept at 4° C., then spun using a centrifuge (5 min in centrifuge designed to capillary tubes) to separate plasma and hematocrit within 4 hours after collection. Plasma samples were stored at −80° C.
For measurement of TMA in plasma, samples were acidified (10 mM HCl final) prior to storage at −80° C. TMAO and trimethylamine (TMA) and their d9-isotopologues were quantified using stable isotope dilution HPLC with on-line electrospray ionization tandem mass spectrometry ([…]) methods as described in (Wang Z, Klipfell E, Bennett B J, et al. (2011) Gut flora metabolism of phosphatidylcholine promotes cardiovascular disease. Nature 472:57-63) using d4(1,1,2,2)-choline, d3(methyl)-TMAO, and d3(methyl)-TMA as internal standards. Concentrations of TMAO in urine were adjusted for urinary dilution by analysis of urine creatinine concentration. Samples were taken at different days during the studies and different doses were administered to avoid side effects at higher doses of some of the compounds.

Pseudomonas aeruginosa = settings: growth on glycine betaine and dimethyl glycine; cited from earlier work
[2] = Pm lysate 1.5 mg/mL protein, 50 μM d9-choline chloride, 37° C., two hours, d9-TMA by LC-MS/MS
[3] = 24 h, mice, oral gavage once daily, 310 mg/kg/day, day 1, blood 20 hours post gavage
[4] = 72 h, mice, oral gavage once daily, 310 mg/kg/day, day 3, blood 20 hours post gavage

| IC50 [1, 2] | SMILES | other results |
| --- | --- | --- |
| 0.235 nM | C#CC[N+](C)(C)CBr [compound 41, bromomethyl-dimethyl-prop-2-ynyl-ammonium] | – |
| 124000 nM | C#CC[N+]1(C)CCC(O)CC1 (centres unmarked) [compound 17, 4-hydroxy-1-methyl-1-(prop-2-yn-1-yl)piperidin-1-ium] | – |
| 30.4 nM | C#CC[N+](C)(C)CCO [compound 21, N-(2-hydroxyethyl)-N,N-dimethyl-2-propyn-1-aminium] | – |
| 50000 nM | C=CC[N+](C)(C)C [compound 37] | – |
| 87900 nM | C#CC[N+](CC#C)(CC#C)CC#C [compound 39, tetrakis(prop-2-ynyl)ammonium] | – |
| 0.463 nM | C#CC[N+](C)(C)CI [compound 42, iodomethyl-dimethyl-prop-2-ynyl-ammonium] | – |
| 279 nM | C#CC[N+](C)(C)CC#N [compound 36, cyanomethyl-dimethyl-prop-2-ynyl-ammonium] | – |
| 1940 nM | C[N+](C)(CCO)CC1CO1 (centres unmarked) [compound 24, 2-hydroxy-N,N-dimethyl-N-(oxiran-2-ylmethyl)ethan-1-aminium] | – |
| 6710 nM | C=CC[N+](C)(C)CCO [compound 25] | – |
| 1810 nM | C#CC[N+](C)(C)CC(=O)O [compound 31] | – |
| 64.4 nM | C=CC[N+](C)(C)CC#N [compound 35, allyl-(cyanomethyl)-dimethyl-ammonium] | – |
| 2.65 nM | C#CC[N+](C)(C)CC#C [compound 34, dimethyl-bis(prop-2-ynyl)ammonium] | – |
| 152 nM | CC#CC[N+](C)(C)CCO [compound 22, N-(2-hydroxyethyl)-N,N-dimethyl-2-butyn-1-aminium] | – |
| 899 nM | C/C=C/C[N+](C)(C)CCO [compound 32, [(E)-but-2-enyl]-(2-hydroxyethyl)-dimethyl-ammonium] | – |
| 81000 nM | C#CC[N+](C)(CC#C)CC#C [compound 38, methyl-tris(prop-2-ynyl)ammonium] | – |
| 44.1 nM | C#CC[N+](C)(C)CC(=O)OC [compound 20, N-(2-methoxy-2-oxoethyl)-N,N-dimethylprop-2-yn-1-aminium] | – |
| 335000 nM | C[N+](C)(CC#N)CCO [compound 29, N-(cyanomethyl)-2-hydroxy-N,N-dimethylethan-1-aminium] | – |
| 117000 nM | C#CC[N+](C)(C)CCCO [compound 28, N-(3-hydroxypropyl)-N,N-dimethylprop-2-yn-1-aminium] | – |
| 31700 nM | C#CC[N+](CC#C)(CC#C)CCO [compound 26, N-(2-hydroxyethyl)-N,N-di(prop-2-yn-1-yl)prop-2-yn-1-aminium] | – |
| 21.6 nM | C#CC[N+](C)(C)CC(=O)O [compound 19, N-(carboxymethyl)-N,N-dimethylprop-2-yn-1-aminium] | – |

The next lines start with the compound.

| SMILES | IC50 [1, 2] | other results |
| --- | --- | --- |
| C=CC[N+](C)(C)CC=C [compound 23, N,N-dimethyl-N-2-propenyl-2-propen-1-aminium] | 3030 nM | – |
| C#CC[N+](C)(C)CCCCC(=O)O [4-carboxy-N,N-dimethyl-N-(prop-2-yn-1-yl)butan-1-aminium bromide] | – | response vs control in vivo at 310 mg/kg/day (plasma TMAO; [3]): 64.4% |
| C#CC[N+](C)(C)CCBr [compound 43, 2-bromoethyl-dimethyl-prop-2-ynyl-ammonium] | 140 nM | – |
| C=CC(=O)OCC[N+](C)(C)C [compound 27, 2-(acryloyloxy)-N,N,N-trimethylethan-1-aminium] | – | IC50 [1]: 68700 nM |
| C#CC[N+](C)(C)CC(O)O [compound 5, N-(2,2-dihydroxyethyl)-N,N-dimethylprop-2-yn-1-aminium] | 5310 nM | – |
| C#CC[N+](C)(C)CC(=O)O | – | response vs control in vivo at 100 mg/kg/day (plasma TMAO; 72 h, mice, oral gavage once daily, 100 mg/kg/day, day 3, blood 20 hours post gavage): 6.06% |
| COC(C[N+](C)(C)CCO)OC [compound 3, N-(2-hydroxyethyl)-2,2-dimethoxy-N,N-dimethylethan-1-aminium] | 2400 nM | – |
| C#CC[N+](C)(C)C [compound 33] | 0.115 nM | – |
| C#CC[N+](C)(C)CC(=C)C#N [2-cyano-N,N-dimethyl-N-(prop-2-yn-1-yl)prop-2-en-1-aminium bromide] | – | response vs control in vivo at 310 mg/kg/day (plasma TMAO; [3]): 46.2% |
| C#CC[N+](C)(C)CCO [ID 21, N-(2-hydroxyethyl)-N,N-dimethyl-2-propyn-1-aminium bromide] | – | response vs control in vivo at 310 mg/kg/day (plasma TMAO; [4]): 0.94%; Growth of P. aeruginosa on GB and DMG (Pseudomonas aeruginosa): inhibited |
| C#CC[N+](C)(C)CCCCC(=O)O [compound 2, 4-carboxy-N,N-dimethyl-N-(prop-2-yn-1-yl)butan-1-aminium] | 110 nM | – |
| C#CC[N+](C)(C)CCl [compound 40, chloromethyl-dimethyl-prop-2-ynyl-ammonium] | 0.0164 nM | – |
| C#CC[N+](C)(C)CC(N)=O [compound 9, N-(2-amino-2-oxoethyl)-N,N-dimethylprop-2-yn-1-aminium] | 130 nM | – |
| C#CC[N+](C)(C)CI [ID 42, iodomethyl-dimethyl-prop-2-ynyl-ammonium iodide] | – | response vs control in vivo at 310 mg/kg/day (plasma TMAO; [4]): 0.1% |
| C#CC[N+](C)(C)CCl [ID 40, chloromethyl-dimethyl-prop-2-ynyl-ammonium iodide] | – | response vs control in vivo at 310 mg/kg/day (plasma TMAO; po, 24 h): 0.43% |
| C=C(C[N+](C)(C)CCO)C(=O)O [compound 10, 2-carboxy-N-(2-hydroxyethyl)-N,N-dimethylprop-2-en-1-aminium] | 15500 nM | – |

| SMILES | IC50 [1, 2] | other results |
| --- | --- | --- |
| C#CC[N+](C)(C)C [ID 33, trimethyl(prop-2-ynyl)ammonium iodide] | – | response vs control in vivo at 310 mg/kg/day (plasma TMAO; po, 72 h): 0.41% |
| C#CC[N+](C)(C)CCN [compound 15, 2-aminoethyl-dimethyl-prop-2-ynyl-ammonium, hydrochloride] | 3010 nM | – |
| C#CC[N+](C)(C)CC(=C)C(=O)O [compound 8, 2-carboxy-N,N-dimethyl-N-(prop-2-yn-1-yl)prop-2-en-1-aminium bromide] | 76.4 nM | – |
| C=C(C#N)C[N+](C)(C)CCO [compound 11, 2-cyano-N-(2-hydroxyethyl)-N,N-dimethylprop-2-en-1-aminium] | 63.1 nM | – |
| C#CC[N+](C)(C)CC(OCC)OCC [compound 6, N-(2,2-diethoxyethyl)-N,N-dimethylprop-2-yn-1-aminium] | 88200 nM | – |
| C#CC[N+](C)(C)CC(=O)C(=O)OC [compound 13, N-(3-methoxy-2,3-dioxopropyl)-N,N-dimethylprop-2-yn-1-aminium] | 63.1 nM | – |
| C#CC[N+](C)(C)CC(OC)OC [compound 4, N-(2,2-dimethoxyethyl)-N,N-dimethylprop-2-yn-1-aminium] | 525 nM | – |
| C#CC[N+](C)(C)CC(=C)C#N [compound 12, 2-cyano-N,N-dimethyl-N-(prop-2-yn-1-yl)prop-2-en-1-aminium] | 4.74 nM | – |
| C#CCC[N+](C)(C)CCO [compound 16, N-(2-hydroxyethyl)-N,N-dimethylbut-3-yn-1-aminium] | 15700 nM | – |
| C=CC[N+](CC=C)(CC=C)CC=C [compound 30, N,N,N-tri(prop-2-en-1-yl)prop-2-en-1-aminium] | 694000 nM | – |
| C#CC[N+](C)(C)CC(=C)C(=O)OC [2-(methoxycarbonyl)-N,N-dimethyl-N-(prop-2-yn-1-yl)prop-2-en-1-aminium bromide] | – | response vs control in vivo at 310 mg/kg/day (plasma TMAO; [3]): 69% |
| C#CC[N+](C)(C)CC(=C)C(=O)OC [compound 1, 2-(methoxycarbonyl)-N,N-dimethyl-N-(prop-2-yn-1-yl)prop-2-en-1-aminium] | 13.2 nM | – |
| C#CC[N+]1(C)C2CCCC1CC2 (centres unmarked) [compound 18, 8-methyl-8-(prop-2-yn-1-yl)-8-azabicyclo[3.2.1]octan-8-ium] | 1610 nM | – |
| C#CC[N+](C)(C)CCCCCC(=O)O [compound 7, 5-carboxy-N,N-dimethyl-N-(prop-2-yn-1-yl)pentan-1-aminium] | 216 nM | – |
| C=C(C#N)C[N+]1(C)C2CCCC1CC2 (centres unmarked) [compound 14, 8-(2-cyanoallyl)-8-methyl-8-azabicyclo[3.2.1]octan-8-ium] | 44600 nM | – |
| C#CC[N+](C)(C)CBr [ID 41, bromomethyl-dimethyl-prop-2-ynyl-ammonium bromide] | – | response vs control in vivo at 310 mg/kg/day (plasma TMAO; [4]): 0.23% |
